Data: patent US20050090451A1, “Treatment of cancer with glutamine” (priority 2002, published 2005)
≈ marks a conversion by molar mass, not a printed value. Read-outs that look alike come from different tables or passages of the source. Blank lines part the entries; values can stand above or below the compound they belong to. Square brackets hold non-standard residues; d marks the D form. Peptide text beside a SMILES is read from it. Sar = CNCC(=O)O

Legend:
Caco-2 cell monolayers [1] = tested on: Caco-2 cell monolayers
Experimental: (§1) Compound cellular uptake into and permeability across Caco-2 monolayers was measured.
(§2) Monolayer integrity was monitored using ^14C-mannitol permeability. Mannitol uptake was also studied.
(§3) Uptake and permeability studies were conducted using Transwelle inserts in the apical to basolateral direction, at intervals of 10 sec., 60 sec., and 5 min.
(§4) ^14C-mannitol and ^3H-drugs were quantified by liquid scintillation counting. For uptake studies, at designated time points (10 sec, 60 sec, and 5 min), the donor solution was aspirated off. The cell monolayer was washed twice with ice cold HBSS to remove any residual binding and then dissolved in 1 ml of the cell solubilizing agent, Solvable®. The cell lysate (0.5 ml) was added to 5 ml scintillation cocktail (Econosafe®) and counted on liquid scintillation counter (Beckman LS5801, Columbia, Md.). For permeability studies, 0.5 ml of received solution was added to 5 ml scintillation cocktail (Econosafe®) and counted on liquid scintillation counter.
(§5) Permeability is an absolute measure (units of cm/Sec or velocity) and can be determined even though the absolute drug concentrations were not known.

in vitro = details: human, Caco-2, Mannitol Permeability with Vehicle
Experimental: as §1, §2, §3, §4, §5

Caco-2 cell monolayers [2] = tested on: Caco-2 cell monolayers; remark: listed apart in the source
Experimental: (§6) Uptake and permeability of each compound was measured in the apical-to-basolateral direction, with and without vehicle.
(§7) Each compound was tritiated. ^14C-mannitol was used as an evaluation of monolayer/cell integrity (i.e. as a low uptake/permeability marker).
(§8) Uptake and Permeability Assessments. Compound cellular uptake into and permeability across Caco-2 monolayers was measured.
(§9) HBSS was used when no pharmaceutical vehicle was present for each of the four compounds. […] Monolayer integrity was monitored using ^14C-mannitol permeability. Mannitol uptake was also studied.
as §3, §4

[3] = tested on: natural killer (NK) cell cytotoxicity; test: NK cell cytotoxicity, 51-Chromium release assay with YAC-1; assay type: in vivo, rats; details: only at week 1 and week 11; FIG. 31
Experimental: Rats were treated as in Example 5.
NK cell cytotoxicity was measured as follows: Aseptically removed spleens were minced using a sterile scalpel, and lymphocytes were teased from the splenic capsule with warm RPMI 1640 (Gibco BRL, Life Technologies Inc., Grand Island, N.Y.). The resulting cells were poured into 50 ml conical tubes, which were filled with ammonium chloride (0.83%) (Sigma Chemical Co., St. Louis, Mo.) to lyse the red cells. The cell solution was then centrifuged for 10 minutes at 1000 rpm. The supernatant was decanted, and the cell pellet was vortexed with RPMI (no GLN) and centrifuged again. Next, the cells were resuspended in approximately 10 ml of RPMI containing 10% fetal bovine serum […] (Gibco BRL, Life Technologies Inc., Grand Island, N.Y.) supplemented with 1% GLN. This cell suspension was placed in Petri dishes and incubated in 6% CO2 at 37° C. for 30 minutes. After incubation to assure adherence of the monocytes, the nonadherent lymphocytes were counted (1:1 with crystal violet stain). Approximately 7×10^6 total cells from each spleen were incubated for 3 days in RPMI containing 10% FBS and recombinant human IL-2 (500 U/ml). […] The calculation of the NK activity is expressed as the following equation: [formula]

[4] = tested on: gut glutathione (GSH) production; test: Gut GLN and GSH fluxes in DMBA-treated rats; assay type: in vivo, Sprague-Dawley rats; details: 20 mg DMBA gavage; 1 week after DMBA; FIG. 15
Experimental: Methods: 80 Sprague-Dawley rats were randomized to 4 groups (n=20/group): DMBA+GLN, DMBA+FA, OIL+GLN, OIL+FA. Rats (age 50 days) were gavaged with a 1-time dose of 20 mg DMBA or oil. Rats were gavaged with AES-14 (1 gm GLN/kg/day) or an isonitrogenous amount of Freamine (FA) from 1 week before till sacrifice at 1 week after DMBA (greatest effect on gut GSH extraction). Arterial and portal blood was taken for GLN and GSH levels, and blood flow measured using 14-C-PAH. Gut GLN and GSH fluxes (uptake or production) were calculated.

[5] = tested on: GSH transport in jejunal basolateral membrane vesicles (BLMV); test: [3H]Glutathione uptake in jejunal basolateral membrane vesicles after DMBA; assay type: in vivo, Sprague-Dawley rats; details: 100 mg/kg DMBA single dose; one week after; FIG. 26
Experimental: Methods: The transport of GSH in the jejunal basolateral membrane vesicles (BLMV) was investigated in Sprague-Dawley rats treated with a single dose of 100 mg/kg DMBA (n=15) or sesame oil (n=15) as controls. The animals were pair-fed pre-defined chow and were given water ad libitum. All rats were sacrificed one week after the DMBA administration. Jejunal basolateral membrane vesicles (BLMV) were prepared using Percoll Colloidal PVP coated silica differential centrifugation technique. All steps were carried out at 2-4° C. Jejunal mucosal scraping was homogenized in isolation buffer containing 180 mM sucrose/2 mM Tris being adjusted to pH 7.40 by 2 mM Hepes using a Polytron homogenizer (Brinkman, Rexdale, ON), at setting 2 to 6 then 6 to 2, over 55 seconds. The homogenate was centrifuges for 10 minutes at 1000 g. The supernatant was filtered through four layers gauze and recollected. The supernatant containing basolateral membrane material then was centrifuged 15 minutes at 22,000 g. […] Protein concentration was determined by the Bio-Rad protein assay (Bio-Rad Laboratories, Hercules, Calif.).
The uptake of [^3H]Glutathione was measured by a rapid mixing/filtration technique. […] All vials were counted with liquid scintillation system LS 1801 (Beckman coulter, Fullerton, Calif.).

[6] = Portal blood and gut mucosa GSH after DMBA; assay type: in vivo, Sprague-Dawley rats; details: 100 mg/kg DMBA, one week after
tumor = details: cited from earlier work
[7] = The Merck Index, cited from earlier work
[8] = tested on: human gastrointestinal epithelial cell line (CaCo); test: Cellular glutamine uptake in CaCo cells (HPLC); assay type: cell-based
Experimental: Both samples were allowed to stand for 1 day at room temperature. The supernatant was decanted from the residue and used for the cellular uptake determination.
On Day 1, cells from a human gastrointestinal epithelial cell line (CaCo) were plated at a density of 0.5×10^6 cells per well in a 6-well tissue culture dish.
At time points 0, 10, 20, 40, and 60 seconds the test material was aspirated and the cells washed three times (3×) with chilled (4° C.) phosphate buffered saline (PBS), followed by the addition of 1.0 ml of perchloric acid. Cells were harvested by scraping, then aspiration by pipet into a 1.7 ml tube.
The harvested cells were sonicated for 10 seconds, and 500 μl of sonicated cells were transferred into a 1.7 ml tube. The perchloric acid was neutralized by the addition of 130 μl of 2M KHCO3, and the resulting mixture was frozen overnight at −80° C.
Upon thawing, the sample was centrifuged for 10 minutes at 14,000 rpm and the supernatants were transferred to new 1.7 ml tubes and frozen at −80° C. The resulting clarified samples were thawed and diluted 1:3 with deionized water. […] After incubation for two minutes at room temperature, a 20 μl sample was injected on a Hypersil® C18 Elite 5 μm HPLC column using 70:30 acetonitrile:water as the mobile phase. Glutamine levels, measured as μg/ml, were detected at 340 nm.

Caco-2 cell monolayers [9] = test: Relative cellular uptake into Caco-2 monolayers, vehicle vs non-vehicle; details: saturated solutions; AES-14 vehicle vs HBSS; FIGS. 3-6
Experimental: as §6, §7, §8, §9, §3, §4

Caco-2 cell monolayers [10] = test: Caco-2 permeability, apical-to-basolateral; details: Aesgen-14 vehicle vs no vehicle; saturated solutions; 5 minute period; FIGS. 8-11
Experimental: as §1, §2, §3, §4, §5

Mannitol Permeability with Vehicle (Caco-2 cell monolayers [1]): Below LOQ
Mannitol Permeability without Vehicle (Caco-2 cell monolayers [1]): Below LOQ
effect of vehicle on mannitol permeability (Caco-2 cell monolayers [1]): no effect
Papp A→B at 5 min (in vitro): 0.916 ×10⁻⁶ cm/s
effect of vehicle on mannitol relative uptake (Caco-2 cell monolayers [2]): no effect
Compound: OC[C@@H](O)[C@@H](O)[C@H](O)[C@H](O)CO [Mannitol, mannitol]

Compound: Cc1c2ccccc2c(C)c2c1ccc1ccccc12 [DMBA, 7,12-dimethylbenz[a]anthracene]
NK cell activity vs non-DMBA controls [3]: lower
effect on gut GLN metabolism [4]: not affecting
effect on normal gut GSH production (negative flux) [4]: abrogated
decrease of the rate of total GSH uptake by BLMV vs control group [5]: 42%
decrease of portal blood GSH concentration ([6]; FIG. 27): 34%
increase of gut mucosa GSH ([6]; FIG. 28): two-fold

effect of vehicle on permeability (Caco-2 cell monolayers [1]): no effect
enhancement of cellular uptake by vehicle (Caco-2 cell monolayers [2]): enhanced
mean cellular glutamine uptake ([8]; normal cells, incubation time 0 seconds): 3.53 µg/mL
mean cellular glutamine uptake ([8]; normal cells, incubation time 10 seconds): 10.30 µg/mL
mean cellular glutamine uptake ([8]; normal cells, incubation time 20 seconds): 2.48 µg/mL
mean cellular glutamine uptake ([8]; normal cells, incubation time 40 seconds): 3.23 µg/mL
mean cellular glutamine uptake ([8]; normal cells, incubation time 60 seconds): 4.85 µg/mL
mean cellular glutamine uptake ([8]; starved cells (L-glutamine deficient medium), incubation time 0 seconds): 1.33 µg/mL
mean cellular glutamine uptake ([8]; starved cells, incubation time 10 seconds): 1.43 µg/mL
mean cellular glutamine uptake ([8]; starved cells, incubation time 20 seconds): 1.49 µg/mL
mean cellular glutamine uptake ([8]; starved cells, incubation time 40 seconds): 2.23 µg/mL
mean cellular glutamine uptake ([8]; starved cells, incubation time 60 seconds): 49.96 µg/mL
Compound: NC(=O)CC[C@H](N)C(=O)O [L-glutamine]
tumor volume loss when glutamine was added to the diet (tumor; rats receiving methotrexate, Klimberg 1992): nearly doubled
decrease of tumor growth (tumor; rats, glutamine by gavage or as a food additive, within three weeks, Fahr 1994): 40%
solubility in water ([7]; 0° C.): 18 mg/mL (≈ 123 mM)
solubility in water ([7]; 18° C.): 26 mg/mL (≈ 178 mM)
solubility in water ([7]; 30° C.): 48 mg/mL (≈ 328 mM)

effect of vehicle on permeability (Caco-2 cell monolayers [1]): no effect
Compound: Nc1nc2c(ncn2COCCO)c(=O)[nH]1 [acyclovir]

effect of vehicle on permeability (Caco-2 cell monolayers [1]): no effect
enhancement of cellular drug uptake by vehicle (relative uptake vehicle vs non-vehicle) (Caco-2 cell monolayers [2]): about four-fold
Compound: NC(=O)C[C@H](N)C(=O)O [L-asparagine]

effect of vehicle on permeability (Caco-2 cell monolayers [10]): no effect
Compound: CN(CC(=O)O)C(=O)CN [glycylsarcosine] (H-Gly-[Sar]-OH)
enhancement of cellular drug uptake by vehicle (relative uptake vehicle vs non-vehicle) (Caco-2 cell monolayers [9]): about four-fold
